Assay results from US20240226128A1, “NOVEL COMPOUNDS WITH DUAL INHIBITION ACTIVITY AGAINST SARS-COV-2 CRITICAL ENZYMES RDRP, MPRO AND HUMAN TMPRSS2” (priority 2022, published 2024).

Experiments:
[1] = system: SARS-CoV-2 (NRC-03-nhCoV strain); assay: In vitro anti-SARS-CoV-2 activity of RH 1-23 compounds (Vero-E6 cells, crystal violet); format: cell-based
Experimental: The antiviral activity was carried out as previously described. Briefly, 96-well tissue culture plates were seeded with 2.4×10^4 Vero-E6 cells/and incubated overnight in Dulbecco's Modified Eagle's medium (DMEM) containing 10% Fetal Bovine Serum (FBS) and 1% penicillin/streptomycin antibiotic mixture at a humidified 37° C. incubator under 5% CO2. The cells were treated with SARS-CoV-2 (NRC-03-nhCoV strain, accession #EPI_ISL_430820) for viral adsorption, which was further overlaid with 50 μl DMEM containing varying concentrations of the tested compounds. Following incubation at 37° C. and 5% C02 for 72 h, the cells were fixed with 100 μl of 4% paraformaldehyde for 20 min and stained at room temperature with 0.1% crystal violet in distilled water for 15 min. The crystal violet dye was then dissolved in 100 μl methanol and the optical density of the obtained color was measured at 570 nm using Anthos Zenyth 200 rt plate reader (Anthos Labtec Instruments, Heerhugowaard, Netherlands).

SARS-CoV-2 = details: comparator, FDA approved drug; cited from earlier work

| SMILES | in vitro antiviral activity against SARS-CoV-2 [1] | in vitro antiviral activity against SARS-CoV-2 (SARS-CoV-2) |
| --- | --- | --- |
| N#C[C@@]1(c2ccc3c(NC(=O)c4ccc(NC(=N)N)cc4)ncnn23)O[C@H](CO)[C@@H](O)[C@H]1O [RH11, (2R,3R,4S,5R)-N-[7-(2-cyano-3,4-dihydroxy-5-hydroxymethyl-tetrahydro-furan-2-yl)-pyrrolo[2,1-f]-[1,2,4]-triazin-4-yl]-4-guanidino-benzamide] | nM range | – |
| CC(C)C(=O)OC[C@H]1O[C@@H](n2ccc(NO)nc2=O)[C@H](O)[C@@H]1O [Molnupiravir] | – | μM range |
| CC(C)c1cc(=O)oc2ccc(OC(=O)c3ccc(NC(=N)N)cc3)cc12 [RH12, 4-guanidino-benzoic acid 4-isopropyl-2-oxo-2H-chromen-6-yl ester] | nM range | – |
